Source: patent publication US6946137B2, “Methods for the controlled delivery of pharmacologically active compounds” (IDEXX Laboratories, Inc., priority 2001, dated 2005)
Structures can show the parent of a compound that is named as a salt. Where two headings read alike, the source gives them in different places.

What was measured:
[1] = in vitro release from dialysis bag into saline; assay type: physicochemical
[2] = stated as background, no test described, cited from earlier work
cats = details: previous data; cited from earlier work

Structure (SMILES) | solubility in water / aqueous solutions (in words), known forms [2] | also measured
CNCCC(Oc1ccc(C(F)(F)F)cc1)c1ccccc1 (centres unmarked) [fluoxetine base formulation, Fluoxetine] | – | time over which the formulation was released in vitro ([1]; 100 mg/ml in 10% propylene glycol in glycerol formal, dialysis technique): about 160 hrs
CN(C)C1C(O)=C(C(N)=O)C(=O)[C@@]2(O)C(O)=C3C(=O)c4c(O)cccc4[C@@](C)(O)C3C(O)C12 (some centres unmarked) [hydrochloride salt of oxytetracycline, Oxytetracycline] | readily soluble in water | –
COCCc1ccc(OCC(O)CNC(C)C)cc1 (centres unmarked) [metoprolol base, Metoprolol] | – | in vitro release rate (in words) ([1]; dialysis bag into saline): diffused off rapidly
COCCc1ccc(OCC(O)CNC(C)C)cc1 (centres unmarked) [metoprolol succinate, Metoprolol] | highly soluble in water | –
CC[C@H]1OC(=O)C[C@@H](O)[C@H](C)[C@@H](OC2OC(C)C(O)C(N(C)C)C2O)[C@@H](CCN2C[C@@H](C)C[C@H](C)C2)C[C@@H](C)C(=O)/C=C/C(C)=C/[C@@H]1COC1OC(C)C(O)C(OC)C1OC (some centres unmarked) [phosphate salt of tilmicosin, Tilmicosin] | – | dosage that could be fatal to cats (cats): 25 mg/kg; solubility in water / aqueous solutions (in words), known forms ([2]; listed as tilmicosin phosphate salt): highly soluble
CC[C@H]1OC(=O)C[C@@H](O)[C@H](C)[C@@H](OC2OC(C)C(O)C(N(C)C)C2O)[C@@H](CCN2C[C@@H](C)C[C@H](C)C2)C[C@@H](C)C(=O)/C=C/C(C)=C/[C@@H]1COC1OC(C)C(O)C(OC)C1OC (some centres unmarked) [tilmicosin basic form, Tilmicosin] | moderately soluble | –
CC[C@H]1OC(=O)C[C@@H](O)[C@H](C)[C@@H](OC2OC(C)C(O)C(N(C)C)C2O)[C@@H](CCN2C[C@@H](C)C[C@H](C)C2)C[C@@H](C)C(=O)/C=C/C(C)=C/[C@@H]1COC1OC(C)C(O)C(OC)C1OC (some centres unmarked) [tilmicosin chloride salt, Tilmicosin] | highly soluble | –
